Assays:
[1] = tested on: enterovirus; test: Case reports: diarrhea with viral/enterovirus protein in colon biopsy (Examples 11, 12); assay type: in vivo, human
From the text: A person developed continuing watery diarrhea, as many as twenty episodes a day, and mild fatigue for three months. Laboratory studies and stool work-up were completely negative. […] They failed Asacol therapy.
A person developed severe watery diarrhea for two months. Stool evaluation was unremarkable. […] They continued to do well for six months on the medication. A decrease of medication to half the dose cause a relapse of the symptoms, which resolved after increasing the dosage.

[2] = tested on: hepatitis B virus; conditions: HBV transgenic mice, cited from earlier work
[3] = tested on: Varicella-Zoster Virus (VZV); test: Case report: chronic recurrent Varicella-Zoster Virus infection (shingles); assay type: in vivo, human; conditions: Example 9 patient, 200 mg bid
Experimental: A person developed recurrent shingles after multiple episodes of sinus infections and sinus surgeries. They also had chronic indigestion and nausea. Fatigue became so severe that they were bedridden for several years.
Coxsackievirus B4 antibody was 1:320. […] The patient was started on oxymatrine 200 mg bid.

[4] = tested on: enterovirus infection (ME/CFS patients); test: Oxymatrine open-label, controlled clinical study in ME/CFS patients with enterovirus infection; assay type: in vivo, human
Experimental: An open-label, controlled study was conducted on patients who fulfilled the international criteria for myalgic encephalomyelitis (ME)/chronic fatigue syndrome (CFS) and had virological evidence of enterovirus infection.
One hundred patients took oxymatrine at dose of 200-300 mg twice a day with or without food for a minimum of three months. Patients who could not complete the course due to side effects or intolerance were considered as failures (intent-to-treat analysis). Of the first group, 52% ( 52/100) responded to oxymatrine, as compared to 6% ( 7/114) of the control groups (p<0.000001, x^2 test). Of the next 104 patients, 52% responded to treatment. […] Fifty-three percent ( 57/107) of patients with elevated coxsackie virus B (CVB) and echovirus (Ech) antibody responded to therapy and 50% ( 49/97) of patients with non-typeable EV infections improved (NS, x^2 test). Fifty-two percent ( 47/91) of patients with positive EV protein in stomach biopsies responded, whereas 56% ( 5/9) of patients with negative biopsies responded (NS, x^2 test).
Relapse of symptoms was common after discontinuing oxymatrine. Fifty-nine percent ( 19/32) of patients (4 male, 15 female) relapsed within two days to one month after discontinuation of oxymatrine. Eighty-seven percent ( 13/15) of patients who relapsed responded to restart of oxymatrine. Subsequent responders were continued on oxymatrine beyond six months.
A small percentage ( 2/204) of patients had transient increase in potassium, which returned to normal without specific treatment. A small percentage of patients ( 2/204) had elevated blood pressure that prompted discontinuation of therapy. […] Transient, moderate increase in pre-existing symptoms were reported by more than 50% of the patients but most patients continued to take the herbs at the same or reduced dose. Twenty patients (10%) stopped oxymatrine within the first eight weeks due to intolerable side effects. […]

[5] = tested on: cytokine gene expression (Th1/Th2); test: Cytokine gene expression study before and during/after oxymatrine; assay type: in vivo, human
From the text: FIG. 4 graphically illustrates a cytokine gene expression study before and after oxymatrine (RQ is the gene expression ratio).
FIG. 5 graphically illustrates cytokine gene expression of interleukin-12P35+P40/interleukin-10 in tissue from CFS patients at the start of (pre-oxymatrine) and during oxymatrine therapy (n=17).
A cytokine gene expression study on blood samples before (Sample 2) and after (Sample 3) taking oxymatrine for 15 months in one patient, is graphically illustrated in FIG. 4. […] FIG. 5 illustrates that neutralizing antibodies CBV 3 and CBV 4 were obtained serially over a three year period (performed by ARUP laboratory, Salt Lake City, Utah).

[6] = tested on: enterovirus; test: Case report: acute enterovirus infection of the gastrointestinal tract; assay type: in vivo, human; conditions: Example 10 patient, 200 mg bid, after ten days
From the text: A person developed subacute onset of severe fatigue, nausea, anorexia and progressive weight loss of 20 pounds following an upper respiratory infection.

[7] = tested on: coxsackievirus B; conditions: in vitro, cell cultures; mechanism not defined; cited from earlier work
[8] = tested on: chronic hepatitis B; conditions: oral, after one year of treatment; cited from earlier work
[9] = compared to placebo-treated animals
[10] = side effects in 176 patients having taken oxymatrine
[11] = blood samples of one patient before and after 15 months of oxymatrine (FIG. 4)

Which results are given for O=C1CCC[C@@H]2[C@H]3CCC[N@+]4([O-])CCC[C@@H](CN12)[C@@H]34 [oxymatrine]?
diarrhea outcome ([1]; Example 11 patient, oxymatrine 200 mg bid): resolved completely in a few days; diarrhea outcome ([1]; Example 12 patient): resolved within one week; level of gamma interferon [2, 9]: increased more than three-fold; level of interleukin-2 [2, 9]: increased more than three-fold; level of interleukin-4 [2, 9]: decreased more than three-fold; level of interleukin-10 [2, 9]: decreased more than three-fold; effect on hepatitis B viremia, mRNA and protein levels [2]: No effect; outbreaks of shingles [3]: less often and not as severe; clinical outcome ([3]; three months): went back to full-time work; relapsed patients who responded to restart of oxymatrine ([4]; 13/15): Eighty-seven; patients relapsed after discontinuation of oxymatrine ([4]; 19/32, within two days to one month after discontinuation): Fifty-nine; duration of the increase in symptoms ([4]; better tolerated when dose increased gradually over 2-3 weeks or longer): a few days to several weeks; patients reporting transient, moderate increase in pre-existing symptoms ([4]; both, human, in vivo): more than 50%; changes of other chemistry parameters and complete blood counts (CBC) ([4]; compared to baseline values): no significant changes; tolerability in most of the patients ([4]; except variable increase of pre-existing symptoms during the first 1-2 days of maximal doses): tolerated oxymatrine well; patients responded to oxymatrine ([4]; first group (52/100), 200-300 mg twice a day, minimum three months, intent-to-treat, control 6% (7/114)): 52%; serious complications during therapy ([4]; human, in vivo): No serious complications; patients responded to treatment ([4]; next 104 patients): 52%; patients with elevated blood pressure that prompted discontinuation of therapy ([4]; of 204 patients): 2/204; patients with transient increase in potassium ([4]; of 204 patients, returned to normal without specific treatment): 2/204; patients responded to therapy ([4]; patients with elevated coxsackie virus B and echovirus antibody (57/107)): Fifty-three; patients improved ([4]; patients with non-typeable EV infections (49/97)): 50%; patients responded ([4]; patients with positive EV protein in stomach biopsies (47/91)): Fifty-two; Diffuse rashes, % of total patients [4, 10]: <1%; Dry eyes and mouth, % of total patients [4, 10]: 1%; Fevers, % of total patients [4, 10]: 2%; Herpes simplex virus outbreak after discontinuation, % of total patients [4, 10]: 1%; Increase in blood pressure, % of total patients [4, 10]: 1%; Increase in edema, % of total patients [4, 10]: 1%; Increased abdominal pain, % of total patients [4, 10]: 6%; Increased bladder symptoms, % of total patients [4, 10]: 2%; Increased diarrhea, % of total patients [4, 10]: 4%; Increased dizziness, % of total patients [4, 10]: 2%; Increased fatigue, % of total patients [4, 10]: 4%; Increased headache, % of total patients [4, 10]: 8%; Increased insomnia, % of total patients [4, 10]: 1%; Increased myalgia, % of total patients [4, 10]: 30%; Increased nausea, % of total patients [4, 10]: 6%; Increased palpitation, chest pain, % of total patients [4, 10]: 3%; Increased polyarthralgia, % of total patients [4, 10]: 1%; Increased sinus congestion, % of total patients [4, 10]: 3%; Inflammation of skin lesion, % of total patients [4, 10]: 1%; New rashes, % of total patients [4, 10]: <1%; Seizure (petit mal), % of total patients [4, 10]: <1%; Weight gain, % of total patients [4, 10]: 1%; outcome in one patient with severe increase in febrile response and marked worsening of symptoms ([4]; toward the end of three months of medication): lasting remission; patients who stopped oxymatrine due to intolerable side effects ([4]; within the first eight weeks, twenty patients): 10%; Th1 cytokines gene expression (interleukin-2, interleukin-12, interleukin-15) [5, 11]: significant increase; regulatory Th2 cytokine gene expression (interleukin-10) [5, 11]: significant decrease; increase of the interleukin-12P35+P40/interleukin-10 gene expression ratio ([5]; seven responders of n=17 CFS patients, pre-oxymatrine vs during therapy (FIG. 5)): greater than 2 fold; interleukin-12P35+P40/interleukin-10 gene expression ratio ([5]; ten non-responders of n=17 CFS patients (FIG. 5)): remained the same or decreased; clinical outcome [6]: resumed their normal activity; growth inhibition of coxsackievirus B [7]: growth inhibition; overall cure rate [8]: about 40%

From patent US8198293B2, “Oxymatrine compositions and related methods for treating and preventing chronic infectious diseases” (priority 2008, dated 2012)
